Tests used:
[1] = system: mononuclear cell fraction of human umbilical cord blood; assay: Proliferation-stimulating effect on mononuclear cell fraction of human umbilical cord blood (3H-TdR uptake); format: cell-based; settings: 96 h, percentage of control, 4 days; for activity at 0.1 µg/mL: 10^-1 μg/ml; for activity at 0.01 µg/mL: 10^-2 μg/ml; for activity at 0.001 µg/mL: 10^-3 μg/ml
Excerpt: Pharmacological Test 3: Proliferation-Stimulating Effect on Mononuclear Cell Fraction of Human Umbilical Cord Blood
It is extremely difficult to obtain human marrow cells. In addition, human umbilical cord blood contains stem cells (Nakahata, T. & Ogwa, M., J. Clin. Inveet. 70, 1324-1328 (1982)), so that it can be a good source of hematopoietic stem/progenitor cell supply (H. E. Broxneyer et al, Proc. Natl. Acad. Sci. USA, 86, 3828-3832 (1989)). For these reasons, the effect on human was examined by using, instead of human marrow cells, human umbilical cord blood.
To human umbilical cord blood was added an equal amount of RPMI 1640. This was placed on a Lymphoprep and centrifugal. The mononuclear cell fraction (MNF) thus obtained was used in the following experiment.
(§1) The concentration of the MNF was adjusted to 1×10^6 cells/ml by using an RPMI 1640 added with 10% auto-blood plasma as a culture medium. 10 μl/well of a sample with a predetermined concentration and 100 μl/well of the above-prepared MNF were placed on a round-bottomed 96 well plate and incubated under the conditions of 37° C. and 5% CO2 for 4 days. Thereafter, 0.5 μCi/well of ^3 H-TdR was added. After 8 hour incubation, the cells were harvested, and the amount of the 3H-TdR taken in the nuclei was measured by a liquid scintillation counter.

[2] = Life-span-increasing effect on irradiation of a lethal dose of radiation; format: in vivo, mouse (BDF1); settings: 10 mice/group, 9 Gy X-ray, 0.1 mg/kg i.v. days 0, 4, 8
Procedure: Pharmacological Test 4: Life-Span-Increasing Effect on Irradiation of a Lethal Dose of Radiation
An experiment was carried out by using 6 week old female BDF1 mice purchased from Japan SLC Co., Ltd., with 10 mice made one group.
The entire bodies of the entire body of the mice were irradiated with 9 Gy of X-rays by using a Hitachi X-ray irradiator (MBR-1520R), and the day on which the X-ray was irradiated was referred to as "day 0".

[3] = system: blood platelets; assay: Thrombocytopenia-inhibiting effect in X-ray-irradiated mice; format: in vivo, mouse (BDF1); settings: 10 days after 5 Gy X-ray; 0.1 mg/kg i.v. within 2 h; mean ± SD; vehicle per series 10.3, 6.8, 6.7; non-treatment 68.2, 96.9, 73.0
Procedure: Pharmacological Test 5: Thromboclytopenia-Inhibiting Effect
The thrombocytopenia-inhibiting effect of each sample upon an X-ray-irradiated mouser which is one of models with a decreased number of blood platelets was examined.
An experiment was carried out by using 6 week old female BDF1 mice purchased from Japan SLC Co., Ltd., with 6 mice made one group.
5 Gy of X ray was irradiated to the entire body of the mice by a Hitachi X-ray irradiator CMBR-1520R). Within 2 hours after the irradiation, each sample was administered to the caudal vein of the mice at an amount of 0.1 mg/kg.
(§2) After 10 days, blood was collected from the fundus vein of the mice, and the number of blood platelets was measured by a sequential multi-channel hemocytometer E-2500/cs (Toa Iyo Denshi Kabushiki Kaisha). The number of blood platelets of the non-treated group, that of the medium-administered group, and that of the sample-administered group are shown in Table 5.

[4] = system: marrow cells (mononuclear cell fraction); assay: Proliferation-stimulating effect on marrow cell of mouse (3H-TdR uptake); format: cell-based, mouse (BALB/c); settings: percentage of control, 72 h; for activity at 0.1 µg/mL: 10^-1 μg/ml; for activity at 0.01 µg/mL: 10^-2 μg/ml; for activity at 0.001 µg/mL: 10^-3 μg/ml; for activity at 1 µg/mL: 10^0 μg/ml
Procedure: Pharmacological Test 1: Proliferation-Stimulating Effect on Marrow Cell of Mouse
Marrow cells were prepared from the thigh bone of a 7 week old female BALB/c mouse purchased from Japan SLC Co., Ltd., and a mononuclear cell fraction (MNF) obtained by fractionation using a lympholyte-M (Cedar Lane, Ontario, Canada) was used in the following experiment.
as §1, with “to 1.5×10^6” for “to 1×10^6”, “using 10% FCS” for “using an”, “1640 (Nissui Pharmaceutical Co., Ltd., Tokyo, Japan)” for “1640 added with 10% auto-blood plasma”, “well plate,” for “well plate”, “for 72 hours.” for “for 4 days.”, “^3 H-thymidine (^3 H-TDR)” for “^3 H-TdR”

[5] = system: blood platelets; assay: Blood-platelet-increasing effect upon normal mouse; format: in vivo, mouse (BDF1); settings: normal mice; 6 days after 0.1 mg/kg i.v.; mean ± SD; vehicle per series 58.2, 63.0, 71.1
Procedure: Pharmacological Test 6: Blood-Platelet-Increasing Effect upon Mouse
An experiment was carried out by using 6 week old female BDF1 mice purchased from Japan SLC Co., Ltd., with 5 mice made one group.
as §2, with “Each sample was administered to the caudal vein of the mice at a dose of 0.1 mg/kg. After” for “After”, “6” for “10”, “vehicle-administered” for “non-treated group, that of the medium-administered”, “6.” for “5.”

[6] = day 10, controls per series 10, 10, 10, 10, 10, 8
[7] = day 15, controls per series 8, 9, 5, 5, 7, 1
[8] = day 20, controls per series 4, 5, 1, 2, 3, 0
[9] = day 25, controls per series 3, 3, 0, 0, 2, 0
[10] = day 30, controls per series 1, 1, 0, 0, 0, 0

Structure (SMILES)	activity at 0.1 µg/mL [1]	activity at 0.01 µg/mL [1]	activity at 0.001 µg/mL [1]	Number of Surviving Mice [2, 6]	Number of Surviving Mice [2, 7]	Number of Surviving Mice [2, 8]	Number of Surviving Mice [2, 9]	Number of Surviving Mice [2, 10]	Number of Surviving Mice ([2]; day 35, all controls 0)	Number of Surviving Mice ([2]; day 40, all controls 0)	Number of Blood Platelets [3]	activity at 0.1 µg/mL [4]	activity at 0.01 µg/mL [4]	activity at 0.001 µg/mL [4]	Number of Blood Platelets [5]	activity at 1 µg/mL [4]
CCCCCCCCCCCCCCCCCCCCCCCC(=O)N[C@@H](CO[C@H]1O[C@H](CO)[C@H](O)[C@H](O)[C@H]1O)[C@H](O)[C@H](O)CCCCCCCCCCCCC [Compound 17, (2S,3S,4R)-1-(α-D-galactopyranosyloxy)-2-tetracosanoylamino-3,4-heptadecanediol]	318%	233%	98%	10 mice	10 mice	9 mice	9 mice	9 mice	9 mice	9 mice	18.5 ± 4.4 × 10^4 /μl	462%	149%	159%	92.1 ± 11.3 × 10^4 /μl	
CCCCCCCCCCCCCCCCCCCCCC[C@@H](O)C(=O)N[C@@H](CO[C@H]1O[C@H](CO)[C@H](O)[C@H](O)[C@H]1O)[C@H](O)[C@H](O)CCCCCCCCCCCCC [Compound 22, (2S,3S,4R)-1-(α-D-galactopyranosyloxy)-2-[(R)-2-hydroxytetracosanoylamino]-3,4-heptadecanediol]	362%	357%	204%	10 mice	10 mice	10 mice	9 mice	8 mice	8 mice	8 mice	25.4 ± 5.1 × 10^4 /μl	226%	116%	104%	104.1 ± 7.7 × 10^4 /μl	613%
CCCCCCCCCCCCCCCCCCCCCC[C@@H](O)C(=O)N[C@@H](CO[C@H]1O[C@H](CO)[C@H](O)[C@H](O)[C@H]1O)[C@H](O)[C@H](O)CCCCCCCCCCC [Compound 23, (2S,3S,4R)-1-(α-D-galactopyranosyloxy)-2-[(R)-2-hydroxytetracosanoylamino]-3,4-pentadecanediol]	402%	344%	197%	10 mice	10 mice	9 mice	9 mice	9 mice	9 mice	9 mice	21.0 ± 5.9 × 10^4 /μl	312%	89%	81%	108.7 ± 14.8 × 10^4 /μl	761%
CCCCCCCCCCCCCCCCCCCCCCCCCC(=O)N[C@@H](CO[C@H]1O[C@H](CO)[C@H](O)[C@H](O)[C@H]1O)[C@H](O)[C@H](O)CCCCCCCCCCCCC [Compound 20, (2S,3S,4R)-1-(α-D-galactopyranosyloxy)-2-hexacosanoylamino-3,4-heptadecanediol]	692%	474%	507%	10 mice	8 mice	7 mice	7 mice	6 mice	6 mice	6 mice	19.8 ± 7.3 × 10^4 /μl	466%	201%	67%	110.9 ± 10.6 × 10^4 /μl	982%
CCCCCCCCCCCCCCCCCCCCCC[C@@H](O)C(=O)N[C@@H](CO[C@H]1O[C@H](CO)[C@H](O)[C@H](O)[C@H]1O)[C@H](O)CCCCCCCCCCCCCCC [Compound 14, (2S,3R)-1-(α-D-galactopyranosyloxy)-2-[(R)-2-hydroxytetracosanoylamino]-3-octadecanol]	233%	141%	96%	10 mice	10 mice	10 mice	9 mice	9 mice	9 mice	9 mice	22.3 ± 6.6 × 10^4 /μl	511%	132%	134%	101.6 ± 8.3 × 10^4 /μl	
CCCCCCCCCCCCCCCCCCCCCC[C@H](O)C(=O)N[C@@H](CO[C@H]1O[C@H](CO)[C@H](O)[C@H](O)[C@H]1O)[C@H](O)[C@H](O)CCCCCCCCCCCCC [Compound 28, (2S,3S,4R)-1-(α-D-galactopyranosyloxy)-2-[(S)-2-hydroxytetracosanoylaminol]-3,4-heptadecanediol]	356%	331%	182%	10 mice	10 mice	10 mice	8 mice	8 mice	8 mice	8 mice	20.4 ± 4.5 × 10^4 /μl	192%	170%	130%	103.6 ± 8.8 × 10^4 /μl	

Source: patent publication US6071884A, “Pharmaceutical compositions and therapeutic methods” (Kirin Beer Kabushiki Kaisha, priority 1992, dated 2000)
